Test results reported in patent US9434692B2, “Pyrazole derivatives as modulators of the 5-HT2A serotonin receptor useful for the treatment of disorders related thereto” (Arena Pharmaceuticals, Inc., priority 2006, dated 2016).

Columns and labels:
[1] = target: human 5-HT2A serotonin receptor (Homo sapiens (Human), UniProt P28223); assay: [125I]DOI radioligand binding assay; conditions: 0.5 nM [125I]DOI, COS7 membranes, recombinant human 5-HT2A
Experimental: Compounds of the invention were tested for their ability to bind to a 5-HT2A serotonin receptor clone membrane preparation using a radioligand binding assay. Briefly, COS cells were transiently transfected with a pCMV expression vector containing a human 5-HT2A receptor (for the sequence of the receptor see U.S. Pat. No. 6,541,209, SEQ ID NO:24).
COS7 cells transfected with recombinant human 5-HT2A serotonin receptors were cultured for 48 h post transfection, collected, washed with ice-cold phosphate buffered saline, pH 7.4 (PBS), and then centrifuged at 48,000 g for 20 min at 4° C. The cell pellet was then resuspended in wash buffer containing 20 mM HEPES pH 7.4 and 0.1 mM EDTA, homogenized on ice using a Brinkman polytron, and recentrifuged at 48,000 g for 20 min at 4° C. The resultant pellet was then resuspended in 20 mM HEPES, pH 7.4, homogenized on ice, and centrifuged (48,000 g for 20 min at 4° C.). Crude membrane pellets were stored at −80° C. until used for radioligand binding assays.
Radioligand binding assays for human 5-HT2A serotonin receptor was conducted using the 5-HT2 agonist [^125I]DOI as radioligand. To define nonspecific binding, 10 μM DOI was used for all assays. For competitive binding studies, 0.5 nM [^125I]DOI was used and compounds were assayed over a range of 0.01 nM to 10 μM. Assays were conducted in a total volume of 200 μl in 96-well Perkin Elmer GF/C filter plates in assay buffer (50 mM Tris-HCl, pH 7.4, 0.5 mM EDTA, 5 mM MgCl2, and 10 μM pargyline). Assay incubations were performed for 60 min at room temperature and were terminated by rapid filtration under vacuum pressure of the reaction mixture over Whatman GF/C glass fiber filters presoaked in 0.5% PEI using a Brandell cell harvester. Filters were then washed several times with ice-cold wash buffer (50 mM Tris-HCl, pH 7.4). Plates were then dried at room temperature and counted in a Wallac MicroBeta scintillation counter.

[2] = system: spontaneously hypertensive rats; conditions: cited from earlier work
JC virus = conditions: cited from earlier work
glaucoma patients = conditions: cited from earlier work
heatstroke = conditions: in vivo; cited from earlier work
[3] = system: DOI-induced hypolocomotion; assay: Attenuation of DOI-induced hypolocomotion in rats; type: in vivo, Sprague-Dawley rats; conditions: compound 1-10 mg/kg p.o., DOI 1 mg/kg s.c.
Experimental: In this example, compounds of the invention were tested for inverse agonist activity by determining whether these compounds could attenuate DOI-induced hypolocomotion in rats in a novel environment. DOI is a potent 5-HT2A/2C receptor agonist that crosses the blood-brain barrier. The standard protocol used is described briefly below.
Male Sprague-Dawley rats weighing between 200-350 g were used for all tests. Rats were housed three to four per cage.
(R)-DOI HCl (C11H16INO2.HCl) was obtained from Sigma-Aldrich, and was dissolved in 0.9% saline. Compounds of the invention were synthesized at Arena Pharmaceuticals Inc., San Diego, Calif., and were dissolved in 100% PEG400. DOI was injected s.c. in a volume of 1 mL/kg, while compounds of the invention were administered p.o. in a volume of 1 mL/kg.
The “Motor Monitor” (Hamilton-Kinder, Poway, Calif.) was used for all activity measurement. This apparatus recorded rears using infrared photobeams. […]
In determining the effects of compounds of the invention on DOI-induced hypoactivity, animals were first injected with vehicle or the compound of the invention (1-10 mg/kg) in their home cages. […] Ten minutes after DOI administration, animals were placed into the activity apparatus and rearing activity was measured for 10 min.
Results (total rears over 10 minutes) were analyzed by t-test. […]

[4] = system: DOCA-salt induced hypertension; conditions: rats; cited from earlier work
diabetic nephropathy = conditions: 24 months of treatment; cited from earlier work
[5] = system: lower back pain, leg pain and numbness; conditions: humans, lumbar disc herniation; cited from earlier work
diabetic rats = conditions: cited from earlier work; for reduction in saphenous sensory conduction velocity: 14.9% reduction in diabetic rats; for correction of sciatic motor conduction deficit: 19.8% deficit in diabetic rats, range over all three drugs; for reduction in sciatic endoneurial blood flow: 44.7% reduction in diabetic rats
pain in rats = conditions: cited from earlier work
normal volunteers = assay: Afternoon nap model of insomnia in normal volunteers; type: in vivo, human
Description: APD125, a potent and selective 5-HT2A serotonin receptor inverse agonist is a member of the genus disclosed in the European Patent EP1558582. […] Sleep onset latency was not decreased by APD125. In the afternoon nap model, APD125 decreased microarousals, the number of sleep stage shifts, and number of awakenings after sleep onset.

healthy adults = assay: Phase 1 trials, waking EEG; type: in vivo, human

Cn1cc(Cl)c(C(=O)N2CCN(CCc3ccccc3F)CC2)n1 [Compound 24, (4-Chloro-1-methyl-1H-pyrazol-3-yl)-{4-[2-(2-fluoro-phenyl)-ethyl]-piperazin-1-yl}-methanone]
IC50 [1]: 36 nM

Cc1[nH]nc(C(=O)N2CCN(CC(=O)c3ccc(F)cc3)CC2)c1F [Compound 42, 2-[4-(4-Fluoro-5-methyl-1H-pyrazole-3-carbonyl)-piperazin-1-yl]-1-(4-fluoro-phenyl)-ethanone]
IC50 [1]: 11 nM

O=C(c1ccc(F)cc1)C1CCN(CCn2c(=O)[nH]c3ccccc3c2=O)CC1 [ketanserin]
blood pressure [2]: stabilize blood pressure
JC virus infection of human glial cells (JC virus): inhibited JC virus infection of human glial cells
intra ocular pressure (IOP) (glaucoma patients): significantly lower IOP
protection during heatstroke (heatstroke): protect against circulatory shocks, intracranial hypertension, and cerebral ischemia during heatstroke

CCn1cc(Cl)c(C(=O)N2CCN(CC(=O)c3ccc(F)cc3)CC2)n1 [Compound 7, 2-[4-(4-Chloro-1-ethyl-1H-pyrazole-3-carbonyl)-piperazin-1-yl]-1-(4-fluoro-phenyl)-ethanone]
attenuation of DOI-induced hypolocomotion (total rears over 10 minutes) [3]: attenuated DOI-induced hypolocomotion

CN1CCN2c3ccccc3Cc3ccccc3C2C1 (centres unmarked) [Mainserin]
DOCA-salt induced hypertension [4]: prevent DOCA-salt induced hypertension

Cn1nc(C(=O)N2CCN(CC(=O)c3ccc(F)cc3)CC2)cc1C(F)(F)F [Compound 35, 1-(4-Fluoro-phenyl)-2-[4-(1-methyl-5-trifluoromethyl-1H-pyrazole-3-carbonyl)-piperazin-1-yl]-ethanone]
attenuation of DOI-induced hypolocomotion (total rears over 10 minutes) [3]: attenuated DOI-induced hypolocomotion

COc1cccc(CCc2ccccc2OCC(CN(C)C)OC(=O)CCC(=O)O)c1 (centres unmarked) [sarpogrelate]
urinary albumin excretion level (diabetic nephropathy): significantly reduced
treatment of lower back pain, leg pain and numbness associated with sciatica [5]: effective treatment
intra ocular pressure (IOP) (glaucoma patients): significantly lower IOP
reduction in saphenous sensory conduction velocity (diabetic rats): completely reversed
correction of sciatic motor conduction deficit (diabetic rats): 82.6-99.7%
reduction in sciatic endoneurial blood flow (diabetic rats): completely reversed
analgesic effect on thermal induced pain (pain in rats; intraperitoneal administration): significant analgesic effect
analgesic effect on inflammatory pain (pain in rats; intrathecal or intraperitoneal administration): significant analgesic effect

Cc1nc2sccn2c(=O)c1CCN1CCC(=C(c2ccc(F)cc2)c2ccc(F)cc2)CC1 [ritanserin]
JC virus infection of human glial cells (JC virus): inhibited JC virus infection of human glial cells
reduction in saphenous sensory conduction velocity (diabetic rats): completely reversed
correction of sciatic motor conduction deficit (diabetic rats): 82.6-99.7%
reduction in sciatic endoneurial blood flow (diabetic rats): completely reversed

Cc1[nH]nc(C(=O)N2CCN(CC(=O)c3ccc(F)cc3)CC2)c1Br [Compound 52, 2-[4-(4-Bromo-5-methyl-1H-pyrazole-3-carbonyl)-piperazin-1-yl]-1-(4-fluoro-phenyl)-ethanone]
IC50 [1]: 4.6 nM

Cn1nc(C(=O)N2CCN(CC(=O)c3ccc(F)cc3)CC2)cc1-c1ccco1 [Compound 66, 1-(4-Fluoro-phenyl)-2-[4-(5-furan-2-yl-1-methyl-1H-pyrazole-3-carbonyl)-piperazin-1-yl]-ethanone]
IC50 [1]: 4.8 nM

COc1ccc(NC(=O)Nc2ccc(F)cc2F)cc1-c1c(Br)cnn1C [APD125]
REM sleep (normal volunteers; human, in vivo): at the expense of REM sleep
microarousals (normal volunteers; human, in vivo): decreased
number of awakenings after sleep onset (normal volunteers; human, in vivo): decreased
number of sleep stage shifts (normal volunteers; human, in vivo): decreased
sleep onset latency (normal volunteers; human, in vivo): not decreased
slow wave sleep and associated parameters (normal volunteers; primarily during the early part of sleep): increased slow wave sleep and associated parameters in a dose-dependent manner
dose of maximal effects on waking EEG (healthy adults): 40 to 80 mg
effects on waking EEG (healthy adults): vigilance-lowering effects
time of peak effects after dosing (healthy adults; waking EEG): 24 h

O=CN1CCC(C(=O)NCCN2CCC(=C3c4ccccc4C=Cc4ccccc43)CC2)CC1 [AT-1015]
reduction in saphenous sensory conduction velocity (diabetic rats): completely reversed
correction of sciatic motor conduction deficit (diabetic rats): 82.6-99.7%
reduction in sciatic endoneurial blood flow (diabetic rats): completely reversed
